Experimental data: patent publication US5529984A, “Endoparasiticidal compositions based on open-chain hexadepsipeptides” (Bayer Aktiengesellschaft, priority 1993, dated 1996)

Tested on: Haemonchus contortus
Experiment: In vivo nematode test Haemonchus contortus/sheep
Conditions: sheep infected experimentally with Haemonchus contortus; pure active compound orally and/or intravenously; dose after which egg excretion with the faeces has stopped completely
Experimental: Haemonchus contortus/sheep
Sheep infected experimentally with Haemonchus contortus were treated after the prepatency period of the parasite had elapsed. The active compounds were administered orally and/or intravenously in the form of the pure active compound.
The degree of effectiveness is determined by quantitatively determining the nematode eggs excreted with the faeces before and after the treatment.
If egg excretion has stopped completely after the treatment, this means that the nematodes were aborted or are damaged to such an extent that they no longer produce eggs (Dosis effective).
Active compounds which have been tested and effective dosage rates (Dosis effective) can be seen from the table which follows: […]

## CCC(C)C(C(=O)OC(C)C(=O)N(C)C(C(=O)OC(C)C(=O)N(C)C(C(=O)OC(C)C(=O)O)C(C)CC)C(C)CC)N(C)C(=O)OCc1ccccc1 [Example 3, N-Benzyloxycarbonyl-N-methyl-L-isoleucyl-D -lactyl-N-methyl-L-isoleucyl-D-lactyl-N-methyl-n-isoleucyl-D-lactic acid]
  Dosis effective: 10 mg/kg
